Test results taken from patent US20230257415A1, “COMPOUNDS FOR TREATING CNS DISORDERS” (SAGE THERAPEUTICS, INC., priority 2019, published 2023).

Molecular target: GABAA receptor
Assay: [35S]-TBPS binding assay, rat brain cortical membranes, in the presence of GABA
Settings: inhibition of 3 nM [35S]-TBPS binding, 5 mM GABA, 90 min, room temp
Procedure: [35S]-t-Butylbicyclophosphorothionate (TBPS) binding assays using rat brain cortical membranes in the presence of 5 mM GABA has been described (Gee et al, J. Pharmacol. Exp. Ther. 1987, 241, 346-353; Hawkinson et al, Mol. Pharmacol. 1994, 46, 977-985; Lewin, A.H et al., Mol. Pharmacol. 1989, 35, 189-194).
Briefly, cortices are rapidly removed following decapitation of carbon dioxide-anesthetized Sprague-Dawley rats (200-250 g). The cortices are homogenized in 10 volumes of ice-cold 0.32 M sucrose using a glass/teflon homogenizer and centrifuged at 1500 x g for 10 min at 4° C. The resultant supernatants are centrifuged at 10,000 x g for 20 min at 4° C. to obtain the P2 pellets. The P2 pellets are resuspended in 200 mM NaCl/50 mM Na-K phosphate pH 7.4 buffer and centrifuged at 10,000 x g for 10 min at 4° C. This washing procedure is repeated twice and the pellets are resuspended in 10 volumes of buffer. Aliquots ([…]) of the membrane suspensions are incubated with 3 nM [^35S]-TBPS and […] aliquots of test drug dissolved in dimethyl sulfoxide (DMSO) (final 0.5%) in the presence of 5 mM GABA. The incubation is brought to a final volume of 1.0 mL with buffer. […] Following a 90 min incubation at room temp, the assays are terminated by filtration through glass fiber filters (Schleicher and Schuell No. 32) using a cell harvester (Brandel) and rinsed three times with ice-cold buffer. Filter bound radioactivity is measured by liquid scintillation spectrometry. Non-linear curve fitting of the overall data for each drug averaged for each concentration is done using Prism (GraphPad). […] The concentration of test compound producing 50% inhibition (IC50) of specific binding and the maximal extent of inhibition (Imax) are determined for the individual experiments with the same model used for the overall data and then the means ± SEM.s of the individual experiments are calculated.
Various compounds are or can be screened to determine their potential as modulators of [^35S]-TBPS binding in vitro. These assays are or can be performed in accordance with the above.

Structure (SMILES) | IC50 [nM]
Cn1ccc(C(=O)NC[C@H]2CCC[C@H]3[C@@H]4CC[C@@H]5C[C@](C)(O)CC[C@@H]5[C@H]4CC[C@]23C)n1 [Example 27, N-(((1S,4aS,4bR,6aR,8R,10aS,10bR,12aS)-8-hydroxy-8,12a-dimethyloctadecahydrochrysen-1-yl)methyl)-1-methyl-1H-pyrazole-3-carboxamide] | 100 to 1000
C[C@@]1(O)CC[C@H]2[C@H](CC[C@@H]3[C@@H]2CC[C@]2(C)[C@@H](CNC(=O)c4ccccn4)CCC[C@@H]32)C1 [Example 29, N-(((1S,4aS,4bR,6aR,8R,10aS,10bR,12aS)-8-hydroxy-8,12a-dimethyloctadecahydrochrysen-1-yl)methyl)picolinamide] | 100 to 1000
C[C@@]1(O)CC[C@H]2[C@H](CC[C@@H]3[C@@H]2CC[C@]2(C)[C@@H](CNC(=O)c4ccccc4F)CCC[C@@H]32)C1 [Example 30, 2-fluoro-N-(((1S,4aS,4bR,6aR,8R,10aS,10bR,12aS)-8-hydroxy-8,12a-dimethyloctadecahydrochrysen-1-yl)methyl)benzamide] | < 100
C[C@@]1(O)CC[C@H]2[C@H](CC[C@@H]3[C@@H]2CC[C@]2(C)[C@@H](CNC(=O)c4cccc(C#N)c4)CCC[C@@H]32)C1 [Example 31, 3-cyano-N-(((1S,4aS,4bR,6aR,8R,10aS,10bR,12aS)-8-hydroxy-8,12a-dimethyloctadecahydrochrysen-1-yl)methyl)benzamide] | 100 to 1000
C[C@@]1(O)CC[C@H]2[C@H](CC[C@@H]3[C@@H]2CC[C@]2(C)[C@@H](CNS(=O)(=O)C4CC4)CCC[C@@H]32)C1 [Example 32, N-(((1S,4aS,4bR,6aR,8R,10aS,10bR,12aS)-8-hydroxy-8,12a-dimethyloctadecahydrochrysen-1-yl)methyl)cyclopropanesulfonamide] | 100 to 1000
Cn1nccc1C(=O)NC[C@H]1CCC[C@H]2[C@@H]3CC[C@@H]4C[C@](C)(O)CC[C@@H]4[C@H]3CC[C@]12C [Example 33, N-(((1S,4aS,4bR,6aR,8R,10aS,10bR,12aS)-8-hydroxy-8,12a-dimethyloctadecahydrochrysen-1-yl)methyl)-1-methyl-1H-pyrazole-5-carboxamide] | 100 to 1000
C[C@@]1(O)CC[C@H]2[C@H](CC[C@@H]3[C@@H]2CC[C@]2(C)[C@@H](CNC(=O)c4ccc(C#N)cc4)CCC[C@@H]32)C1 [Example 34, 4-cyano-N-(((1S,4aS,4bR,6aR,8R,10aS,10bR,12aS)-8-hydroxy-8,12a-dimethyloctadecahydrochrysen-1-yl)methyl)benzamide] | 100 to 1000
C[C@@]1(O)CC[C@H]2[C@H](CC[C@@H]3[C@@H]2CC[C@]2(C)[C@@H](CNC(=O)c4cccnc4)CCC[C@@H]32)C1 [Example 35, N-(((1S,4aS,4bR,6aR,8R,10aS,10bR,12aS)-8-hydroxy-8,12a-dimethyloctadecahydrochrysen-1-yl)methyl)nicotinamide] | 100 to 1000
CC[C@]12CC[C@@](C)(O)C[C@H]1CC[C@H]1[C@@H]3CCC[C@H](CNC(=O)c4ccccc4)[C@@]3(C)CC[C@@H]12 [Example 36, N-(((1S,4aS,4bS,6aR,8R,10aS,10bS,12aS)-10a-ethyl-8-hydroxy-8,12a-dimethyloctadecahydrochrysen-1-yl)methyl)benzamide] | 100 to 1000
CC[C@]12CC[C@@](C)(O)C[C@H]1CC[C@H]1[C@@H]3CCC[C@H](CN(C)C(=O)c4ccccc4)[C@@]3(C)CC[C@@H]12 [Example 37, N-(((1S,4aS,4bS,6aR,8R,10aS,10bS,12aS)-10a-ethyl-8-hydroxy-8,12a-dimethyloctadecahydrochrysen-1-yl)methyl)-N-methylbenzamide] | 100 to 1000
CC[C@]12CC[C@@](C)(O)C[C@H]1CC[C@H]1[C@@H]3CCC[C@H](CN(C)S(=O)(=O)c4ccccc4)[C@@]3(C)CC[C@@H]12 [Example 38, N-(((1S,4aS,4bS,6aR,8R,10aS,10bS,12aS)-10a-ethyl-8-hydroxy-8,12a-dimethyloctadecahydrochrysen-1-yl)methyl)-N-methylbenzenesulfonamide] | < 100
CC[C@]12CC[C@@](C)(O)C[C@H]1CC[C@H]1[C@@H]3CCC[C@H](CNS(=O)(=O)c4ccccc4)[C@@]3(C)CC[C@@H]12 [Example 39, N-(((1S,4aS,4bS,6aR,8R,10aS,10bS,12aS)-10a-ethyl-8-hydroxy-8,12a-dimethyloctadecahydrochrysen-1-yl)methyl)benzenesulfonamide] | 100 to 1000
CC[C@]12CCC3[C@H]4CC[C@](O)(COC)C[C@H]4CC[C@H]3[C@@H]1CCC[C@@H]2CNC(=O)c1ccc(C#N)cc1 (stereo partly drawn) [Example 41, 4-cyano-N-(((1S,4aS,4bR,6aR,8R,10aS,12aS)-12a-ethyl-8-hydroxy-8-(methoxymethyl)octadecahydrochrysen-1-yl)methyl)benzamide] | 100 to 1000
C[C@H](NC(=O)c1ccc(C#N)cc1)[C@H]1CCC[C@H]2[C@@H]3CC[C@@H]4C[C@](C)(O)CC[C@@H]4C3CC[C@]12C (stereo partly drawn) [Example 42, 4-cyano-N-((1S)-1-((1S,4aS,4bR,6aR,8R,10aS,12aS)-8-hydroxy-8,12a-dimethyloctadecahydrochrysen-1-yl)ethyl)benzamide] | 100 to 1000
C[C@@H](NC(=O)c1ccc(C#N)cc1)[C@H]1CCC[C@H]2[C@@H]3CC[C@@H]4C[C@](C)(O)CC[C@@H]4C3CC[C@]12C (stereo partly drawn) [Example 43, 4-cyano-N-((1R)-1-((1S,4aS,4bR,6aR,8R,10aS,12aS)-8-hydroxy-8,12a-dimethyloctadecahydrochrysen-1-yl)ethyl)benzamide] | 100 to 1000
COC[C@@]1(O)CC[C@@H]2C3CC[C@]4(C)[C@@H]([C@@H](C)NC(=O)c5ccc(F)cc5)CCC[C@H]4[C@@H]3CC[C@@H]2C1 (stereo partly drawn) [Example 44, 4-fluoro-N-((1R)-1-((1S,4aS,4bR,6aR,8R,10aS,12aS)-8-hydroxy-8-(methoxymethyl)-12a-methyloctadecahydrochrysen-1-yl)ethyl)benzamide] | 100 to 1000
COC[C@@]1(O)CC[C@@H]2C3CC[C@]4(C)[C@@H]([C@H](C)NC(=O)c5ccc(F)cc5)CCC[C@H]4[C@@H]3CC[C@@H]2C1 (stereo partly drawn) [Example 45, 4-fluoro-N-((1S)-1-((1S,4aS,4bR,6aR,8R,10aS,12aS)-8-hydroxy-8-(methoxymethyl)-12a-methyloctadecahydrochrysen-1-yl)ethyl)benzamide] | 100 to 1000
COC[C@@]1(O)CC[C@@H]2C3CC[C@]4(C)[C@@H]([C@@H](C)NC(=O)c5ccc(C#N)cc5)CCC[C@H]4[C@@H]3CC[C@@H]2C1 (stereo partly drawn) [Example 46, 4-cyano-N-((1R)-1-((1S,4aS,4bR,6aR,8R,10aS,12aS)-8-hydroxy-8-(methoxymethyl)-12a-methyloctadecahydrochrysen-1-yl)ethyl)benzamide] | 100 to 1000
COC[C@@]1(O)CC[C@@H]2C3CC[C@]4(C)[C@@H]([C@H](C)NC(=O)c5ccc(C#N)cc5)CCC[C@H]4[C@@H]3CC[C@@H]2C1 (stereo partly drawn) [Example 47, 4-cyano-N-((1S)-1-((1S,4aS,4bR,6aR,8R,10aS,12aS)-8-hydroxy-8-(methoxymethyl)-12a-methyloctadecahydrochrysen-1-yl)ethyl)benzamide] | 100 to 1000
C[C@H](Nc1cccc(C#N)c1)[C@H]1CCC[C@H]2[C@@H]3CC[C@@H]4C[C@](C)(O)CC[C@@H]4C3CC[C@]12C (stereo partly drawn) [Example 48, 3-(((1S)-1-((1S,4aS,4bR,6aR,8R,10aS,12aS)-8-hydroxy-8,12a-dimethyloctadecahydrochrysen-1-yl)ethyl)amino)benzonitrile] | < 100
C[C@@H](Nc1cccc(C#N)c1)[C@H]1CCC[C@H]2[C@@H]3CC[C@@H]4C[C@](C)(O)CC[C@@H]4C3CC[C@]12C (stereo partly drawn) [Example 49, 3-(((1R)-1-((1S,4aS,4bR,6aR,8R,10aS,12aS)-8-hydroxy-8,12a-dimethyloctadecahydrochrysen-1-yl)ethyl)amino)benzonitrile] | < 100
C[C@H](Nc1ccc(C#N)cc1)[C@H]1CCC[C@H]2[C@@H]3CC[C@@H]4C[C@](C)(O)CC[C@@H]4C3CC[C@]12C (stereo partly drawn) [Example 50, 4-(((1S)-1-((1S,4aS,4bR,6aR,8R,10aS,12aS)-8-hydroxy-8,12a-dimethyloctadecahydrochrysen-1-yl)ethyl)amino)benzonitrile] | < 100
